Columns and labels:
Format in all cases: cell-based
[1] = biological target: T1, mPIEZO1 (Mus musculus, UniProt E2JF22); test: Intracellular Ca2+ measurement (Fura-2) in mPIEZO1-TREx cells; conditions: for Peak ΔCa2+i (ΔF340/380), median fold difference compared to Yoda1: 10 μM compound, mPIEZO1-TREx cells, paired with 10 μM Yoda1; for Ca2+ response (agonist effect): 10 μM, cells overexpressing mPIEZO1, compared with Yoda1; for EC50: overexpressed mouse PIEZO1, calcium assays
T1 construct: expressed in transfected cells
Excerpt: HEK T‐REx™ cells that constitutively overexpress murine PIEZO1 were generated as previously described (Blythe et al., [2019]). pcDNA3 mouse PIEZO1 (mPIEZO1) IRES green fluorescent protein (GFP), a gift from Ardem Patapoutian (Coste et al., [2010]), was used as a template to clone the mPIEZO1 coding sequence into pcDNA4/TO. Overlapping mPIEZO1 (forward primer 5′‐[…]‐3′ and reverse primer 5′‐[…]‐3′) and pcDNA4/TO (forward primer 5′‐[…]‐3′ and reverse primer 5′‐[…]‐3′) PCR products were assembled using Gibson Assembly (New England Biolabs). […] HEK T‐REx™ 293 cells were transfected with pcDNA4/TO‐mPIEZO1 using Lipofectamine 2000 (Invitrogen) and treated with 200 μg·ml^−1 zeocin to select stably transfected cells. Individual clones were isolated and analysed for expression using Yoda1 and intracellular Ca^2+ measurements. These cells are referred to as mPIEZO1‐TREx.
HEK 293‐TREx cells and their stably transfected derivatives or transiently transfected HEK 293 or HeLa cells were seeded at a density of 7.5 × 10^4 cells per well into poly‐D‐lysine‐coated 96‐well plates. The plates were either commercially pre‐coated with poly‐D‐lysine (Greiner Bio‐One #655946) or (Greiner Bio‐One #655090) were coated in‐house with 35 μl of a 10 μg·ml^−1 poly‐D‐lysine (Bio‐Techne, Cultrex # 3439‐100‐01) in sterile deionised water per well for at least 24 h and rinsed three times with 100 μl per well sterile D‐PBS before addition of cells. HUVECs were seeded into tissue culture‐treated 96‐well plates (Greiner Bio‐One #655090) at a density of either 2.5 × 10^4 cells 24 h before experimentation or 1.25 × 10^4 cells 48 h before experimentation. Cells were incubated with 2 μM Fura‐2‐AM (Molecular Probes™) in the presence of 0.01% (wt./vol.) pluronic F127 (Sigma‐Aldrich #P2443) in standard bath solution (SBS) for 1 h at 37°C. Cells were washed with SBS for 30 min at room temperature. Alternatively, if inhibitors were being tested, these were added at this time, immediately following a wash in SBS. (−)‐Englerin A (Akbulut et al., [2015]) was used in SBS containing 0.01% pluronic acid as a dispersing agent to minimise aggregation of compound. Unless otherwise stated, the final concentration of DMSO was 0.2% (vol./vol). Working 2000× stock solutions of test compounds were freshly made in DMSO and diluted 1000‐fold in SBS during the 30 min SBS wash/inhibitor pre‐incubation period to obtain 2× solutions for injection. When testing the highest concentration of Yoda1, KC159 and KC289 (30 μM), the final DMSO concentration was 0.6% (vol./vol.). Measurements were made at room temperature on a 96‐well fluorescence plate reader (FlexStation 3, Molecular Devices, Sunnyvale, CA, USA) controlled by SoftMax Pro software v7.0.3. Recipient wells containing 80 μl SBS/0.2% (vol./vol.) DMSO vehicle or inhibitor compound received 80 μl 2× compound at an injection rate of 1 μl·s^−1, and the pipette introduced liquids from a height setting of 70 μl. No trituration was performed. For recordings using Fura‐2, the change in intracellular Ca was indicated as the ratio of Fura‐2 emission (510 nm) intensities at 340 and 380 nm excitation. Photomultipliers were set to medium sensitivity. SBS contained 130 mM NaCl, 5 mM KCl, 8 mM D‐glucose, 10 mM HEPES, 1.2 mM MgCl2 and 1.5 mM CaCl2, and the pH was adjusted to 7.4 with NaOH. The solution was filtered through a 0.2 μm bottle‐top filter prior to use and handled aseptically thereafter.
For intracellular Ca^2+ (Ca^2+i) measurements, technical intra‐experiment replicates were used to improve confidence in the data. Analysis of individual experiments was performed to obtain mean ± SEM values. For collated analysis of independent experiments, where normal distributions were not evidenced by Shapiro–Wilk normality tests, non‐parametric distributions were assumed, and therefore, median values were used. […]

[2] = biological target: T1, mPIEZO1; test: Pre-treatment with analogue before Yoda1 stimulus, Ca2+ assay in mPIEZO1-TREx cells; conditions: for 0.5 μM Yoda1-evoked peak ΔCa2+i (ΔF340/380), median fold difference compared to DMSO pretreatment: mPIEZO1-TREx, 10 μM compound 30 min pretreatment before 0.5 μM Yoda1
[3] = biological target: T2, PIEZO1 channels endogenously expressed in HUVECs (Homo sapiens, UniProt Q92508); test: Intracellular Ca2+ measurement in HUVECs; conditions: peak ΔCa2+i, Hill fit, read-out: EC50 (estimated concentration for 50% effect)
T2 construct: HUVECs, which are a physiologically relevant cell type that endogenously expresses PIEZO1 channels; host or cells: HUVEC
Experimental: Human umbilical vein endothelial cells (HUVECs) purchased from PromoCell (#C‐12203) were maintained in endothelial cell […] medium 2 (ECGM‐2, PromoCell #C‐22111) supplemented with 500 pg·ml^−1 recombinant human vascular endothelial growth factor 165, 10 ng·ml^−1 recombinant human basic fibroblast growth factor, 200 ng·ml^−1 hydrocortisone, 22.5 μg·ml^−1 heparin and 2% (vol./vol.) fetal calf serum. […] After washing the cell monolayer with D‐PBS (Sigma #D8537), 2 ml pre‐warmed 0.05% trypsin– EDTA (Gibco #25300054) was added to 75 cm^2 flasks until the cells had detached (between 2 and 5 min at 37°C). Complete ECGM‐2 (8 ml) was added to inhibit the trypsin, the cells were counted and their density was adjusted before seeding into fresh vessels for maintenance cultivation or experimental purposes. The medium for maintenance of cultures was completely refreshed every 48 h. HUVECs were used for experiments after a minimum of three and a maximum of five passages. […]
HEK 293‐TREx cells and their stably transfected derivatives or transiently transfected HEK 293 or HeLa cells were seeded at a density of 7.5 × 10^4 cells per well into poly‐D‐lysine‐coated 96‐well plates. […] Measurements were made at room temperature on a 96‐well fluorescence plate reader (FlexStation 3, Molecular Devices, Sunnyvale, CA, USA) controlled by SoftMax Pro software v7.0.3. […]

T1 sequence (E2JF22 whole entry): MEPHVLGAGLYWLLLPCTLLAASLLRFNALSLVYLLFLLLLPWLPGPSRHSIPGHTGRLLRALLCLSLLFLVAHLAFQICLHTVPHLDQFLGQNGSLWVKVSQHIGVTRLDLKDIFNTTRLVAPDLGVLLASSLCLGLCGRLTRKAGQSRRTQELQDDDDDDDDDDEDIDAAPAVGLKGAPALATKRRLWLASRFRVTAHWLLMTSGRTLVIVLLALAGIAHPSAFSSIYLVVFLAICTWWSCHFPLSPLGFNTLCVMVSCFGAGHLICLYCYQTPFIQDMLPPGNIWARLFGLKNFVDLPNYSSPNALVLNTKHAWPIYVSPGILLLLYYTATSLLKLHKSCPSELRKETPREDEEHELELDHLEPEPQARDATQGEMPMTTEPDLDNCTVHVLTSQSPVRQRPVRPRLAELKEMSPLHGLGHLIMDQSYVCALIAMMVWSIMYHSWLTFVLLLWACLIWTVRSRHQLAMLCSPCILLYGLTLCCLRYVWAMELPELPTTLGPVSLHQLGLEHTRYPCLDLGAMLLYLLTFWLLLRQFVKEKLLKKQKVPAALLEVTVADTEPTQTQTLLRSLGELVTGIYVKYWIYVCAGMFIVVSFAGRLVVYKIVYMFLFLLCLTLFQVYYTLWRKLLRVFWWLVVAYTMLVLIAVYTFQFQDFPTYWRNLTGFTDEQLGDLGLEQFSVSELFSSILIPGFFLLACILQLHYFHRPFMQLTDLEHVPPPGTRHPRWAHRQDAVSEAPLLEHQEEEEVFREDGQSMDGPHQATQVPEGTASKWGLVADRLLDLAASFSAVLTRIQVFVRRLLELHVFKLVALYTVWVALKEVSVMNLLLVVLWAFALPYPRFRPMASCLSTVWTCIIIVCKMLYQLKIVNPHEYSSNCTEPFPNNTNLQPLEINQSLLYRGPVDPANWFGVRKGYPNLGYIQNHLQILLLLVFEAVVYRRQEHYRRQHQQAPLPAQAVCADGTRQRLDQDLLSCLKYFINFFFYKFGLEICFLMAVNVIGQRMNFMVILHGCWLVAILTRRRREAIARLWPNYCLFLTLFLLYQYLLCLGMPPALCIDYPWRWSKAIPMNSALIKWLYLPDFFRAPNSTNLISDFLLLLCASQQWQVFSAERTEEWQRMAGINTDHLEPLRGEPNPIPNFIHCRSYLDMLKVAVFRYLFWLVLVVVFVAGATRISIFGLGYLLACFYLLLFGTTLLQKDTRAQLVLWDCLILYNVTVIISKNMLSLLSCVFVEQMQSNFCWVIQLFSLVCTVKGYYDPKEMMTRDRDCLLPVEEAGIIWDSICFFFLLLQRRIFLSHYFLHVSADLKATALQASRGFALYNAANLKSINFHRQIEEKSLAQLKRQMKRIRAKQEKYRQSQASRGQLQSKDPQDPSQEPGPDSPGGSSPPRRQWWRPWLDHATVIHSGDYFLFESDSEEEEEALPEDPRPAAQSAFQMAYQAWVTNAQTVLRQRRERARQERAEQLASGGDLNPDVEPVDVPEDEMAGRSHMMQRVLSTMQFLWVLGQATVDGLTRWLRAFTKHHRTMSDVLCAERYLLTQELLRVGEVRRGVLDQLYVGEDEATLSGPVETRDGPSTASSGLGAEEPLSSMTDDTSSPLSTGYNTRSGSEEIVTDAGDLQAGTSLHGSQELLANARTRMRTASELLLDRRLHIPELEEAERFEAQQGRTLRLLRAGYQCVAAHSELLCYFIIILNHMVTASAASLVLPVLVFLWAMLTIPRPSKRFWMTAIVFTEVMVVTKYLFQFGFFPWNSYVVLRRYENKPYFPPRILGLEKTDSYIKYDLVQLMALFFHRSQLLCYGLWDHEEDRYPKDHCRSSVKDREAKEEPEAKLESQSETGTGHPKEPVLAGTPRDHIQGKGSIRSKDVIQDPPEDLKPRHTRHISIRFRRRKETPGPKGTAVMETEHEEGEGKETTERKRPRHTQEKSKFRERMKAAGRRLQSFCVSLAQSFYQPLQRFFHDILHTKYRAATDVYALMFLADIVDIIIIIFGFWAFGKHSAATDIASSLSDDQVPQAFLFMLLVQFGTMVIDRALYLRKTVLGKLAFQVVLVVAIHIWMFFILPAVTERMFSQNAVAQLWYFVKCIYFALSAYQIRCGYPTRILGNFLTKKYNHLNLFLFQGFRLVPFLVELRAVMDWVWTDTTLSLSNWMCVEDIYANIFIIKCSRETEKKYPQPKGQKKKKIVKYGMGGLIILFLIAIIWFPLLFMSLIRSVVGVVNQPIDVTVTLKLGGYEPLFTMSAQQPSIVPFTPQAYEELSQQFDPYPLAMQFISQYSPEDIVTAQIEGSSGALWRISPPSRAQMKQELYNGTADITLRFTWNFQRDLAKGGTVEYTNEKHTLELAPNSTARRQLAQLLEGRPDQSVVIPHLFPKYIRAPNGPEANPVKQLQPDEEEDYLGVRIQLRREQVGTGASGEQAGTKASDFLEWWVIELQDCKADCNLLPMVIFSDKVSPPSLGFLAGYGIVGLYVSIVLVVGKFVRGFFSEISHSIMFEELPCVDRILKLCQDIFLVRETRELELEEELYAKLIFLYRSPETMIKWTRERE
T2 sequence (Q92508 whole entry): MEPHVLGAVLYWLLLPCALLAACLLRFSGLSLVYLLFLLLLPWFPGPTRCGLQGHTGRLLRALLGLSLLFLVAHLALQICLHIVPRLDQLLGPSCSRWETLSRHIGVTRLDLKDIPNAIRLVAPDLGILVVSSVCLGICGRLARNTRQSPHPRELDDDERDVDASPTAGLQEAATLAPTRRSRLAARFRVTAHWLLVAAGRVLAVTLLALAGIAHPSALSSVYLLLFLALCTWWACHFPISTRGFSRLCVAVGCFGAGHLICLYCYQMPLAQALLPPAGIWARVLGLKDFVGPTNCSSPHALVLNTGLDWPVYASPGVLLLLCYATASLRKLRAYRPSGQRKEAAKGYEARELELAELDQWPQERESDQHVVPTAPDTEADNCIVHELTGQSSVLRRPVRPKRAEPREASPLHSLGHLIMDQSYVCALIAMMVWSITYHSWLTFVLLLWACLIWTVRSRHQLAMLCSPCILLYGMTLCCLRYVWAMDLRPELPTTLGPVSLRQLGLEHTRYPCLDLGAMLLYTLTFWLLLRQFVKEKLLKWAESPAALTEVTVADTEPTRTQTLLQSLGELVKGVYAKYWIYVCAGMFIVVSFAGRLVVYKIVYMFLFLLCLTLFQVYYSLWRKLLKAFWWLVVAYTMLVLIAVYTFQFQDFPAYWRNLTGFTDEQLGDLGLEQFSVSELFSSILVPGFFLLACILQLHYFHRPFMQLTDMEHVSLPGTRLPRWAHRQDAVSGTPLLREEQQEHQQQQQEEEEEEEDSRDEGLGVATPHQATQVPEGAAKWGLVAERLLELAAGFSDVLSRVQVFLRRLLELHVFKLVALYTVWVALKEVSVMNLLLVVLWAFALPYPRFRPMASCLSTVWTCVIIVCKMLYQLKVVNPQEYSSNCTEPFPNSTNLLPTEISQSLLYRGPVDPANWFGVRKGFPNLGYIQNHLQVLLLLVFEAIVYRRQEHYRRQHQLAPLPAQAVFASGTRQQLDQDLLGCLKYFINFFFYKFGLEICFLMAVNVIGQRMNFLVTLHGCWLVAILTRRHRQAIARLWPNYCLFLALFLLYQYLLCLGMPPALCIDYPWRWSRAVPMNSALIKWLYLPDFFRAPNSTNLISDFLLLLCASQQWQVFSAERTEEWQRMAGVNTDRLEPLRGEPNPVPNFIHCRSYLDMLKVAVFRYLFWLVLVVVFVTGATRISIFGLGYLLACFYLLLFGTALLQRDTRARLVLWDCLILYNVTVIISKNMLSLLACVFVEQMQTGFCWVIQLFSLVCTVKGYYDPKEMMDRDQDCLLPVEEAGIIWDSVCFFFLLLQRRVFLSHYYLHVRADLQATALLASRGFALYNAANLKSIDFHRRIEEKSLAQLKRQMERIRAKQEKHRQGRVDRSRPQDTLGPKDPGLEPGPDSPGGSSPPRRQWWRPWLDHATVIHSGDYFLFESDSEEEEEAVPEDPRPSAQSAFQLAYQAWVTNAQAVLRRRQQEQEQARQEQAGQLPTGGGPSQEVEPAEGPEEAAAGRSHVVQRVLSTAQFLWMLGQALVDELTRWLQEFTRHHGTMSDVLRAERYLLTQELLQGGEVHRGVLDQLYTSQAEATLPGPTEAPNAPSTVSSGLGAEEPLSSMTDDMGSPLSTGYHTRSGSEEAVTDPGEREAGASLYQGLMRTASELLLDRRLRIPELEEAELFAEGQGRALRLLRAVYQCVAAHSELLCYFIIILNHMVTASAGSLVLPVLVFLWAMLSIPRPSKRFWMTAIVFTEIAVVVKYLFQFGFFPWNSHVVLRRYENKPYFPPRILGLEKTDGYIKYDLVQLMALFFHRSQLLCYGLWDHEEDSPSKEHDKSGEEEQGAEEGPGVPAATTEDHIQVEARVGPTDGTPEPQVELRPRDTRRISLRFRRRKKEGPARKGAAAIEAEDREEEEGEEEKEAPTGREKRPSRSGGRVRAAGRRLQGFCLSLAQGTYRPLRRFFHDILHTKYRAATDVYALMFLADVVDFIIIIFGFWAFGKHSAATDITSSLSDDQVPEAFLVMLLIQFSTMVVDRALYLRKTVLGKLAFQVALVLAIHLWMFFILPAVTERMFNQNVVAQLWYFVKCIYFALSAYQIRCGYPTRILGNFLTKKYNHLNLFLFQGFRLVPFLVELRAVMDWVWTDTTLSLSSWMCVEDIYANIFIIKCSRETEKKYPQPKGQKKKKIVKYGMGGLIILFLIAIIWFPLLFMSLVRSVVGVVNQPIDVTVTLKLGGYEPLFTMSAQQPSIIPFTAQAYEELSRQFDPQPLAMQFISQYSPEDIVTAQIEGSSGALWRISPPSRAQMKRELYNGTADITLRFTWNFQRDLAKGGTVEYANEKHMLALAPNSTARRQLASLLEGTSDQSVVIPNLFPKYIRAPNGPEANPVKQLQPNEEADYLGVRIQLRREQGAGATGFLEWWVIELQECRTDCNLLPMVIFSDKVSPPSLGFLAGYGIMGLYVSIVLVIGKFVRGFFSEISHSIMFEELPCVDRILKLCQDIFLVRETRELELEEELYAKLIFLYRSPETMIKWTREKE

Row | SMILES | Peak ΔCa2+i (ΔF340/380), median fold difference compared to Yoda1 [1] | Ca2+ response (agonist effect) [1] | Potency relative to Yoda1 ([1]; mPIEZO1, from EC50 values) | EC50 [1] | 0.5 μM Yoda1-evoked peak ΔCa2+i (ΔF340/380), median fold difference compared to DMSO pretreatment [2] | EC50 [3] | Inhibition of the action of Yoda1 ([2]; mPIEZO1 channels, 10 μM for 30 min prior to Yoda1)
1 | O=C([O-])c1ccc(-c2nnc(SCc3c(Cl)cccc3Cl)s2)cc1.[K+] [KC289] | +1.2 fold | larger responses than Yoda1 | approximately four times more potent than Yoda1 | 150 nM | −2.8 fold | 1140 nM | –
2 | O=C(O)c1ccccc1-c1nnc(SCc2c(Cl)cccc2Cl)s1 [KC157] | −70.6 fold | inactive | – | – | +1.2 fold | – | failed to inhibit the action of Yoda1
3 | O=C(O)c1ccc(-c2nnc(SCc3c(Cl)cccc3Cl)s2)cc1 [KC159] | +1.1 fold | larger responses than Yoda1 | – | 280 nM | −2.1 fold | 2280 nM | –
4 | Clc1cccc(Cl)c1CSc1nnc(-c2cnccn2)s1 [Yoda1, 2‐[5‐[[(2,6‐dichlorophenyl)methyl]thio]‐1,3,4‐thiadiazol‐2‐yl]pyrazine] | – | – | – | 600 nM | – | – | –

From PMC10952572, “Improved PIEZO1 agonism through 4‐benzoic acid modification of Yoda1” (British Journal of Pharmacology, 2023)
